Experiments:
[1] = test system: porcine trabecular meshwork (PTM) cells; assay: Cell-based porcine trabecular meshwork (PTM) assay, actin-fiber length; design: key: +++: More active than control-; ++: As active as control; +: Less active than control; −: Inactive; settings: activity at 50 μM as compared to control
Description: Cell-based porcine trabecular meshwork (PTM) assay.
The anterior section of porcine eyes was harvested within 4 hours post-mortem. The iris and ciliary body were removed and trabecular meshwork cells were harvested by blunt dissection. Finely minced trabecular meshwork tissue was plated into collagen-coated 6-well plates in Medium-199 containing 20% fetal bovine serum (FBS). After two passages at confluence, cells were transferred to low-glucose DMEM containing 10% FBS. Cells were used between […].
Cells were plated into fibronectin-coated, glass multiwell plates the day before compound testing under standard culture conditions. Compounds were added to cells in the presence of 1% FBS-containing DMEM and 1% DMSO. When compounds were incubated with the cells for the duration determined to be optimal, the media and compound is removed and cells fixed for 20 minutes in 3% methanol-free paraformaldehyde. Cells were rinsed twice with phosphate buffered saline (PBS) and cells are permeabilized with 0.5% Triton X-100 for two minutes. Following an additional two washes with PBS, F-actin was stained with Alexa-fluor 488-labelled phalloidin and nuclei are stained with DAPI.
Data was reduced to the mean straight actin-fiber length and normalized to DMSO-treated control cells (100%) and 50 μM Y-27632 (0%). Y-27632 is a rho-kinase inhibitor known to result in the depolymerization of F-actin in these cells.
The cellular assay described in Reference Example Two was used to test some of the foregoing Examples 1-101, the results of which are presented below. The results are provided in terms activity at 50 μM as compared to control

[2] = target: T1, hGRK-2 (Homo sapiens, UniProt P25098); assay: luciferase-based (Kinase-Glo) biochemical kinase inhibition assay, hGRK-2; settings: luciferase assay, casein substrate, 10 μM ATP; read-out: GRK-2 inhibition, Ki class
T1 sequence (P25098 1-689): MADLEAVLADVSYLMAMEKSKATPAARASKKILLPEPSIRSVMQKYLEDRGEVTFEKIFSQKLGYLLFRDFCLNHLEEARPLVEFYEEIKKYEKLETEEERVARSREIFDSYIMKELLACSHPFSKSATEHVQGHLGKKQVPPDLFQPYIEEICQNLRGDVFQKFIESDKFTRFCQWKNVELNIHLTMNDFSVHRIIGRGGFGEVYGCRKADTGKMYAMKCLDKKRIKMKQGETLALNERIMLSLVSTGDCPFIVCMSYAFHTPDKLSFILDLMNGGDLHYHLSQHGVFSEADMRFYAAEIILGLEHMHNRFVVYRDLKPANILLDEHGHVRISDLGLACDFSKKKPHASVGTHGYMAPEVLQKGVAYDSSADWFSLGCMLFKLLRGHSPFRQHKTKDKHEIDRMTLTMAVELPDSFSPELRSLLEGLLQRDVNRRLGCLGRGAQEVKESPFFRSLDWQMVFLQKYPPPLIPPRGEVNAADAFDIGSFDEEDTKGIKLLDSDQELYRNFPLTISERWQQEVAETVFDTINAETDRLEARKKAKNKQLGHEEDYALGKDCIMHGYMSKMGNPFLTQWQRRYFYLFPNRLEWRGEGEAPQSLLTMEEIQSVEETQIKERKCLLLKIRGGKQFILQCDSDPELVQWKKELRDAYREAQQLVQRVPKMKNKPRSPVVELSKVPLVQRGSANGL
Procedure, shortened: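 Final conditions: 50 nM hGRK2, 20 μM casein, 10 μM ATP and 50 μM test compound in 4.5% DMSO, in HEPES pH 7.5 buffer with MgCl2, orthovanadate, CHAPS, BSA and DTT. Incubation ran 90-120 min at room temperature, targeting 20-30% ATP consumption. Remaining ATP was read by luminescence with diluted Kinase-Glo containing 0.01% trypan blue.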

[3] = target: T2, GRK-3 (Homo sapiens, UniProt P35626); assay: luciferase-based biochemical kinase inhibition assay, GRK-3; settings: same luciferase assay; read-out: GRK-3 inhibition, Ki class
T2 sequence (P35626 1-688): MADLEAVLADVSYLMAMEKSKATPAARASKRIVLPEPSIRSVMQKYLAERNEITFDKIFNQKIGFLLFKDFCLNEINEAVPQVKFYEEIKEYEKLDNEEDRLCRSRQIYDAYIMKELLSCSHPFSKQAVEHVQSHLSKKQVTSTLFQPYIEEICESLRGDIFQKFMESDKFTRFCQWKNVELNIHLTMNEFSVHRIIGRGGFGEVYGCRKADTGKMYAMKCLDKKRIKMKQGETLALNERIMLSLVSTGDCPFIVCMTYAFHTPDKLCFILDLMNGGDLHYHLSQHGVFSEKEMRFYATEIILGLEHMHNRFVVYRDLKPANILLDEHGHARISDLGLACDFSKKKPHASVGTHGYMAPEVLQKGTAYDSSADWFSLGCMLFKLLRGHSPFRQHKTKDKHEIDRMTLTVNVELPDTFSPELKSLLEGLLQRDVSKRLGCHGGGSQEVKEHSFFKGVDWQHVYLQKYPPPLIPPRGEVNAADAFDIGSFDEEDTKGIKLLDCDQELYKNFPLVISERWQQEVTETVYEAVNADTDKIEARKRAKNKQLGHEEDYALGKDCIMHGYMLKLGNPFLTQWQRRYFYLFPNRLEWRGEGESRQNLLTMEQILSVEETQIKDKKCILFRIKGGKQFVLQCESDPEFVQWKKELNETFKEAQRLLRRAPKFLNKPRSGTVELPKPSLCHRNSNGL
Description: (§1) The inhibition of G-protein-coupled receptor kinases including hGRK-2 was determined for the hydrazide compounds using a biochemical assay. The inhibition of GRK-3, GRK-5 and GRK-6 was also determined using the same assay for some of the hydrazide derivatives.
(§2) The protein kinase inhibition was determined using a biochemical assay utilizing the light emission of a luciferase reaction. The luciferase-based assay operates on the following reaction principles: [drawing 10]
(§3) An inhibitor of GRK-2 will increase in the amount of ATP in solution, as shown. Thus, an inhibitor of GRK-2 will drive the luciferase reaction to the right, resulting in more light emitted. The amount of light emitted is proportional to the inhibition resulting from the GRK-2 inhibitor. The luciferase-based assay was also used to test some of the hydrazides for the inhibition properties towards other kinases.

[4] = target: GRK-5 (Homo sapiens, UniProt P34947); assay: luciferase-based biochemical kinase inhibition assay, GRK-5; settings: same luciferase assay; read-out: GRK-5 inhibition, Ki class
GRK-5, sequence (P34947 whole entry, species assumed): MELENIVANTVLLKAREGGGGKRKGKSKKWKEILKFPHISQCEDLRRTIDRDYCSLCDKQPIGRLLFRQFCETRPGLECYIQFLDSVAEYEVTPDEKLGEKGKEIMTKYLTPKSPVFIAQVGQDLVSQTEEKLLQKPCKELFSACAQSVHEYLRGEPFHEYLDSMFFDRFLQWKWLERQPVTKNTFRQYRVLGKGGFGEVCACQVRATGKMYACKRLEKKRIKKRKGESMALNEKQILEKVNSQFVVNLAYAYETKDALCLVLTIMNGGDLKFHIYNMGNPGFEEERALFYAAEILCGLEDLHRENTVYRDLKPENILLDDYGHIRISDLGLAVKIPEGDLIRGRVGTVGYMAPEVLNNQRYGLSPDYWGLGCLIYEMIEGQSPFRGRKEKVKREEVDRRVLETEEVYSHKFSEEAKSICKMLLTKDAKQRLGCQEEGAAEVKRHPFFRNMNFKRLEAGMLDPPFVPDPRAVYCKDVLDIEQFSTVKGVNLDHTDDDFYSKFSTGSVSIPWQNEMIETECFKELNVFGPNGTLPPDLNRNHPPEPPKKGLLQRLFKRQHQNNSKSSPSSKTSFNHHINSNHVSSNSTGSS
Description: The inhibition of G-protein-coupled receptor kinases including hGRK-2 was determined for the hydrazide compounds using a biochemical assay. […] The inhibition of GRK-3, GRK-5 and GRK-6 was also determined using the same assay for some of the hydrazide derivatives.
as §2, §3

[5] = target: GRK-6 (Homo sapiens, UniProt P43250); assay: luciferase-based biochemical kinase inhibition assay, GRK-6; settings: same luciferase assay; read-out: GRK-6 inhibition, Ki class
GRK-6, sequence (P43250 whole entry, species assumed): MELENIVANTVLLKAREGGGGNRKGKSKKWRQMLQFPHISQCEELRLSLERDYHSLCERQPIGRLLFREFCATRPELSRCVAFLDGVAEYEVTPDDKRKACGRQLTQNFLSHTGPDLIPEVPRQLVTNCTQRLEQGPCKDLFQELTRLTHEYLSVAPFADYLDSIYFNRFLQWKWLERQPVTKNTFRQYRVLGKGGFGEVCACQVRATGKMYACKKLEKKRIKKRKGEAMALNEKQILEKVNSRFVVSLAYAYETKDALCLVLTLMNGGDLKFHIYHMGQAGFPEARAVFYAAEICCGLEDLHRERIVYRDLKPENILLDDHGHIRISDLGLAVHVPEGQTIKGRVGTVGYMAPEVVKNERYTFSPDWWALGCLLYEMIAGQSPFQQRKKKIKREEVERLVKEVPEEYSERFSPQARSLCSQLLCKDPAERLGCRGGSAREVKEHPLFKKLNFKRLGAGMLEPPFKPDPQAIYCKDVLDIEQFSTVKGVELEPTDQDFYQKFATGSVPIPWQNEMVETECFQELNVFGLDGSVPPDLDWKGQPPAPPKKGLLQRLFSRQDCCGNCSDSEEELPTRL
Description: as §1, §2, §3

Row | Structure (SMILES) | Ki [2] | Ki [3] | Ki [4] | Ki [5] | PTM Cell Assay Result [1]
1 | O=C(CNc1cccc(C(=O)Nc2ccccc2)c1)N/N=C/c1ccncc1 [drawing 113] |  |  |  |  | ++
2 | O=C(CNc1ccc(Oc2ccccc2)cc1)N/N=C/c1c(Cl)cncc1Cl |  |  |  |  | +
3 | COc1cc(/C=N/NC(=O)CNc2cccc(Cl)c2)nc(OC)n1 |  |  |  |  | +
4 | CNC(=O)c1cccc(NCC(=O)N/N=C/c2c(Cl)cncc2Cl)c1 [drawing 118] |  |  |  |  | +
5 | O=C(CNc1cccc(C(=O)NCCN2CCOCC2)c1)N/N=C/c1c(Cl)cncc1Cl [drawing 116] |  |  |  |  | +
6 | O=C(CNc1cccc(C(=O)Nc2cccnc2)c1)N/N=C/c1ccncc1 [drawing 114] |  |  |  |  | ++
7 | C/C(=N\NC(=O)CNc1cccc(OCc2ccccc2)c1)c1ccncc1 [Example 87, (3-Benzyloxy-phenylamino)-acetic acid [1-pyridin-4-yl-eth-(E)-ylidene]-hydrazide] | 0.1 to 1 µM | 0.1 to 1 µM | > 10 µM |  | 
8 | O=C(CNc1cccc(Oc2ccccc2)c1)N/N=C/c1ccncc1 [Example 55, (3-Phenoxy-phenylamino)-acetic acid [1-pyridin-4-yl-meth-(E)-ylidene]-hydrazide] | 0.1 to 1 µM | 0.1 to 1 µM | > 10 µM | > 10 µM | 
9 | C/C(=N\NC(=O)CNc1cccc(C(=O)Nc2ccccc2)c1)c1ccncc1 [drawing 119] |  |  |  |  | +
10 | COc1ccc(Oc2cccc(NCC(=O)N/N=C/c3ccncc3)c2)cc1 |  |  |  |  | +
11 | O=C(CNc1cccc(C(=O)Nc2ccccc2)c1)N/N=C/c1c(Cl)cncc1Cl [drawing 112] |  |  |  |  | ++
12 | C/C(=N\NC(=O)CNc1cccc(Oc2ccccc2)c1)c1ccncc1 [Example 89, (3-Phenoxy-phenylamino)-acetic acid [1-pyridin-4-yl-eth-(E)-ylidene]-hydrazide] | 0.1 to 1 µM | 0.1 to 1 µM | > 10 µM |  | 
13 | C/C(=N\NC(=O)CNc1cccc(C(=O)Nc2ccccc2)c1)c1ccncc1 [Example 90, N-Phenyl-3-{[1-pyridin-4-yl-eth-(E)-ylidene-hydrazinocarbonylmethyl]-amino}-benzamide] | 0.1 to 1 µM | 0.1 to 1 µM | > 10 µM |  | 

The next lines start with results.

Row | Ki [2] | Ki [3] | Ki [4] | Ki [5] | Structure (SMILES) | PTM Cell Assay Result [1]
14 | 0.1 to 1 µM | 0.1 to 1 µM | 1 to 10 µM | > 10 µM | CNC(=O)c1cccc(NCC(=O)N/N=C/c2c(Cl)cncc2Cl)c1 [Example 13, 3-{[1-(3,5-Dichloro-pyridin-4-yl)-meth-(E)-ylidene-hydrazinocarbonylmethyl]-amino}-N-methyl-benzamide] | 
15 | 0.1 to 1 µM | 0.1 to 1 µM | 1 to 10 µM | > 10 µM | O=C(CNc1cccc(OCc2ccccc2)c1)N/N=C/c1c(Cl)cncc1Cl [Example 9, (3-Benzyloxy-phenylamino)-acetic acid [1-(3,5-dichloro-pyridin-4-yl)-meth-(E)-ylidene]-hydrazide] | 
16 | 0.1 to 1 µM | 0.1 to 1 µM | 1 to 10 µM | > 10 µM | O=C(CNc1cccc(Oc2ccccc2)c1)N/N=C/c1c(Cl)cncc1Cl [Example 15, (3-Phenoxy-phenylamino)-acetic acid [1-(3,5-dichloro-pyridin-4-yl)-meth-(E)-ylidene]-hydrazide] | 
17 | 0.1 to 1 µM | 1 to 10 µM | > 10 µM |  | O=C(CNc1cccc(F)c1)N/N=C/c1ccncc1 [Example 40, (3-Fluoro-phenylamino)-acetic acid [1-pyridin-4-yl-meth-(E)-ylidene]-hydrazide] | 
18 | 0.1 to 1 µM | 0.01 to 0.1 µM | 1 to 10 µM |  | O=C(CNc1cccc(C(=O)Nc2ccccc2)c1)N/N=C/c1c(Cl)cncc1Cl [Example 97, 3-{[1-(3,5-Dichloro-pyridin-4-yl)-meth-(E)-ylidene-hydrazinocarbonylmethyl]-amino}-N-phenyl-benzamide] | 
19 | 0.1 to 1 µM | > 10 µM | > 10 µM |  | CCOc1cccc(NCC(=O)N/N=C/c2c(Cl)cncc2Cl)c1 [Example 21, (3-Ethoxy-phenylamino)-acetic acid [1-(3,5-dichloro-pyridin-4-yl)-meth-(E)-ylidene]-hydrazide] | 
20 | 1 to 10 µM | 1 to 10 µM | 1 to 10 µM |  | O=C(CNc1cccc(Cl)c1)N/N=C/c1c(Cl)cncc1Cl [Example 1, (3-Chloro-phenylamino)-acetic acid [1-(3,5-dichloro-pyridin-4-yl)-meth-(E)-ylidene]-hydrazide] | 
21 | 0.1 to 1 µM | 0.1 to 1 µM | > 10 µM |  | CNC(=O)c1cccc(NCC(=O)N/N=C/c2ccncc2)c1 [Example 52, N-Methyl-3-{[1-pyridin-4-yl-meth-(E)-ylidene-hydrazinocarbonylmethyl]-amino}-benzamide] | 
22 | 0.01 to 0.1 µM | 0.01 to 0.1 µM |  | > 10 µM | COc1cccc(NCC(=O)N/N=C/c2c(Cl)cncc2Cl)c1 [Example 5, (3-Methoxy-phenylamino)-acetic acid [1-(3,5-dichloro-pyridin-4-yl)-meth-(E)-ylidene]-hydrazide] | 
23 | 0.01 to 0.1 µM | 0.01 to 0.1 µM | 1 to 10 µM | > 10 µM | COc1cccc(NCC(=O)N/N=C/c2ccncc2)c1 [Example 43, (3-Methoxy-phenylamino)-acetic acid [1-pyridin-4-yl-meth-(E)-ylidene]-hydrazide] | 
24 | 0.1 to 1 µM | 0.1 to 1 µM | > 10 µM |  | CSc1cccc(NCC(=O)N/N=C/c2ccncc2)c1 [Example 48, (3-Methylsulfanyl-phenylamino)-acetic acid [1-pyridin-4-yl-meth-(E)-ylidene]-hydrazide] | 

— US20070135499A1 (Aerie Pharmaceuticals, Inc., priority 2005, published 2007)
